One assay has as its system fragments from a sarcoma. Kind of assay: tumor fragment fibrin clot angiogenesis assay, sarcoma. In kind it is cell-based, human. As to conditions: 1 mM, day 14, control compound. Here is the method: (§1) Fibrin clots were prepared in 96-well plates (Corning Inc., Corning, N.Y.). Each well was preloaded with a human thrombin solution (0.05 IU/mL; in 2.0 μL/well), (Sigma Chemical Company, St Louis, Mo.). A pre-coagulation solution was prepared by dissolving fibrinogen (0.3%; Sigma) and ∈-aminocaproic acid (0.5%; Sigma) in serum-free growth medium consisting of medium 199 (Mediatech, Herndon Va.) supplemented with an antibiotic-antifungal solution (Gibco/Invitrogen, Grand Island, N.Y.; 100 Units/mL of sodium penicillin G, 100 μg/mL of streptomycin sulfate, and 25 μg of amphotericin B) and buffered to a pH of 7.6. Tumor specimens were placed in chilled serum-containing growth media (medium 199 with 20% fetal bovine serum [FBS], Gibco/Invitrogen) and kept under refrigeration until they were processed. The specimens were processed within 24 hours of surgical harvesting. Minced tumor fragments approximately 2 mm in diameter and 1 mm thick were prepared and rapidly embedded within the fibrin clots. Each tumor fragment was placed in the center of a thrombin-treated well. […] Percent initiation (% I) is a ratio calculated from the number of wells that developed an angiogenic response divided by the total number of wells prepared (×100). […] On day 14, fragments were examined microscopically and scored for an angiogenic response (angiogenic index=0-16). […]

The test system of assay [1] is fragments from a neuroendocrine lymph node metastasis. Kind of assay: tumor fragment fibrin clot angiogenesis assay, neuroendocrine lymph node metastasis. In kind it is cell-based, human. As to conditions: 1 mM, day 14, control compound. Here is the method: as §1

We go through one compound from patent publication US9066959B2, “Ficus extracts having angiogenesis inhibiting activity and methods of isolating and using the same” (BOARD OF SUPERVISORS OF LOUISIANA STATE UNIVERSITY AND …, priority 2008, dated 2015).

Turning to `O=C(O)c1cc(O)c(O)c(O)c1` [Gallic Acid], the “angiogenic response (angiogenic index 0-16)” value (in the assay on fragments from a sarcoma; in assay [1]) was “total inhibition” in each case.
